ChEMBL document CHEMBL1201862, “PubChem BioAssay data set” (2004)
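The compound was tested at five concentrations on cells cultured in 96-well plates, with a 48-hour exposure period. Abbreviation: GI50, concentration required for 50% inhibition of growth.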 Active and inactive are the calls of the source. Cut-off read from the data, not from the text of the source: active = GI50 up to about 1.1 µM and inactive = higher.

What was measured:
Test in all cases: inhibition of tumour cell growth, NCI panel, 48 h
EKVX = system: EKVX
SNB-75 = system: SNB-75
UACC-257 = system: UACC-257
M14 = system: M14
SF-295 = system: SF-295
PC-3 = system: PC-3
SK-OV-3 = system: SK-OV-3
OVCAR-5 = system: OVCAR-5
A498 = system: A498
IGROV-1 = system: IGROV-1
HT-29 = system: HT-29
HL-60 = system: HL-60
SNB-19 = system: SNB-19
SF-268 = system: SF-268
CCRF-CEM = system: CCRF-CEM
SK-MEL-2 = system: SK-MEL-2
NCI-H226 = system: NCI-H226
SF-539 = system: SF-539
HOP-92 = system: HOP-92

Row | Compound | GI50 (EKVX) | GI50 (SNB-75) | GI50 (UACC-257) | GI50 (M14) | GI50 (SF-295) | GI50 (PC-3) | GI50 (SK-OV-3) | GI50 (OVCAR-5) | GI50 (A498) | GI50 (IGROV-1) | GI50 (HT-29) | GI50 (HL-60) | GI50 (SNB-19) | GI50 (SF-268) | GI50 (CCRF-CEM) | GI50 (SK-MEL-2) | GI50 (NCI-H226) | GI50 (SF-539) | GI50 (HOP-92)
1 | Cn1nc(-c2ccccc2)c2c(-c3ccccc3)c3cc(Cl)ccc3nc21 | > 100 µM (inactive) | > 100 µM (inactive) | > 100 µM (inactive) | > 100 µM (inactive) | 97.1 µM (inactive) | > 100 µM (inactive) | > 100 µM (inactive) | > 100 µM (inactive) | > 100 µM (inactive) | > 100 µM (inactive) | 49.3 µM (inactive) | 18.2 µM (inactive) | > 100 µM (inactive) | > 100 µM (inactive) | 0.0311 µM (active) | > 100 µM (inactive) | > 100 µM (inactive) |  | 
2 | COc1ccccc1/C=N/Nc1nnc2c3ccccc3c3ncccc3c2n1 | 43.1 µM (inactive) | 19.3 µM (inactive) | > 100 µM (inactive) | 50.5 µM (inactive) | 6.14 µM (inactive) | > 100 µM (inactive) | 32.8 µM (inactive) | 79.4 µM (inactive) |  | 53.1 µM (inactive) | 57.4 µM (inactive) | > 100 µM (inactive) | 39.2 µM (inactive) | 29.9 µM (inactive) | 17.6 µM (inactive) | 24.2 µM (inactive) |  | 19 µM (inactive) | 14.6 µM (inactive)
3 | Cc1ccc(N(C)S(=O)(=O)c2ccccc2[N+](=O)[O-])cc1 | 55.1 µM (inactive) |  | 41.7 µM (inactive) | 21.6 µM (inactive) | 52.1 µM (inactive) | 19 µM (inactive) |  | 65.5 µM (inactive) |  |  | 34 µM (inactive) | > 100 µM (inactive) | 64.9 µM (inactive) | 48.4 µM (inactive) |  | 30.8 µM (inactive) | 27.3 µM (inactive) | 40.1 µM (inactive) | 
4 | CN(C)c1ccc(/C=C2\N=C(c3ccccc3)N(/N=C3\C(=O)Nc4ccccc43)C2=O)cc1 | 27 µM (inactive) | 57.9 µM (inactive) | 85.3 µM (inactive) | 91.4 µM (inactive) | 69.8 µM (inactive) | 56.5 µM (inactive) | > 100 µM (inactive) | > 100 µM (inactive) | 73.6 µM (inactive) | 25.9 µM (inactive) | 53.8 µM (inactive) | 35.2 µM (inactive) | > 100 µM (inactive) | 39.6 µM (inactive) | 37.2 µM (inactive) | 37.7 µM (inactive) |  | > 100 µM (inactive) | 16.9 µM (inactive)
5 | COc1ccc(O[C@H](COCc2ccccc2)C[C@@H]2COC(C)(C)O2)cc1 | > 100 µM (inactive) | > 100 µM (inactive) | > 100 µM (inactive) | > 100 µM (inactive) | > 100 µM (inactive) | > 100 µM (inactive) | > 100 µM (inactive) | > 100 µM (inactive) | > 100 µM (inactive) | > 100 µM (inactive) | > 100 µM (inactive) |  | > 100 µM (inactive) | > 100 µM (inactive) | > 100 µM (inactive) | > 100 µM (inactive) | > 100 µM (inactive) | > 100 µM (inactive) | 
6 | COC(=O)C12CCC(C(=O)OC)(Cc3c(c4ccccc4n3S(=O)(=O)c3ccccc3)C1)C2=O (stereo not drawn) | > 100 µM (inactive) | > 60.7 µM (inactive) | > 64.1 µM (inactive) | > 63.8 µM (inactive) | > 51.1 µM (inactive) | > 63.5 µM (inactive) | > 70.8 µM (inactive) | > 32.2 µM (inactive) | > 100 µM (inactive) | > 26.7 µM (inactive) | > 46.3 µM (inactive) |  | > 56.4 µM (inactive) | > 61 µM (inactive) | 1 µM (active) | > 100 µM (inactive) |  | > 40.6 µM (inactive) | 1 µM (active)
7 | O=[N+]([O-])/C(C(Cl)=C(Cl)Cl)=C(\Nc1cccc2ccccc12)n1nnc2ccccc21 | > 100 µM (inactive) | 86.5 µM (inactive) | > 100 µM (inactive) | > 100 µM (inactive) | 32.1 µM (inactive) | 47.1 µM (inactive) | 68.7 µM (inactive) | 42 µM (inactive) | 33.5 µM (inactive) |  | 63.5 µM (inactive) |  | 32.9 µM (inactive) | 48 µM (inactive) | 28.9 µM (inactive) | 38.4 µM (inactive) | 71.3 µM (inactive) | > 100 µM (inactive) | 
8 | CC(C)NC1CCCCC2c3ccccc3C12O (stereo not drawn) | > 100 µM (inactive) | > 100 µM (inactive) | > 100 µM (inactive) | > 100 µM (inactive) | > 100 µM (inactive) |  | > 100 µM (inactive) |  |  |  | > 100 µM (inactive) | > 100 µM (inactive) | > 100 µM (inactive) | > 100 µM (inactive) | > 100 µM (inactive) | > 100 µM (inactive) | > 100 µM (inactive) |  | 
9 | O=C(/N=N/c1cccc(Cl)c1)NNc1cccc(Cl)c1 |  | 28.5 µM (inactive) | 19.1 µM (inactive) | 14.4 µM (inactive) |  | 8.97 µM (inactive) |  | 15.8 µM (inactive) | 17.7 µM (inactive) | 17.5 µM (inactive) | 22.9 µM (inactive) | 16.7 µM (inactive) | 20.8 µM (inactive) | 24.7 µM (inactive) | 18.2 µM (inactive) | 11.5 µM (inactive) | 23.9 µM (inactive) |  | 
10 | CCOC(=O)c1ccc(N2C(=S)N(C(=O)c3ccccc3)C(=N/c3ccccc3)/C2=N\c2ccccc2)cc1 | > 100 µM (inactive) | 22.7 µM (inactive) | > 100 µM (inactive) | 27.2 µM (inactive) | 65.9 µM (inactive) | 59 µM (inactive) | 32 µM (inactive) | > 100 µM (inactive) |  | 49.5 µM (inactive) | > 100 µM (inactive) |  | 72.9 µM (inactive) | > 100 µM (inactive) |  | 40.6 µM (inactive) | 22.9 µM (inactive) | 63.2 µM (inactive) | 26.4 µM (inactive)
11 | CCOC(=O)CCC(NC(=O)c1ccc(Nc2nc3ccccc3n3cccc23)cc1)C(=O)OCC (stereo not drawn) | 41.5 µM (inactive) | 26.7 µM (inactive) | 26.2 µM (inactive) | 51.6 µM (inactive) | 25.2 µM (inactive) | 16.4 µM (inactive) | 24.1 µM (inactive) | 45.6 µM (inactive) | 70.1 µM (inactive) | 35.5 µM (inactive) | 17.9 µM (inactive) | > 100 µM (inactive) | 42.1 µM (inactive) | 37.8 µM (inactive) | 54.8 µM (inactive) | 20 µM (inactive) |  | 18.8 µM (inactive) | 32.1 µM (inactive)
12 | CNc1ccc(C)cc1S(=O)(=O)c1ccccc1[N+](=O)[O-] | 51.8 µM (inactive) | 43.3 µM (inactive) |  | 40.6 µM (inactive) | 42.1 µM (inactive) | 28.1 µM (inactive) | 91 µM (inactive) | > 100 µM (inactive) | 62.5 µM (inactive) | 58.5 µM (inactive) | 48.1 µM (inactive) | > 10 µM (inactive) | 78 µM (inactive) | 53 µM (inactive) | 21.4 µM (inactive) | 62.4 µM (inactive) | 75.5 µM (inactive) | > 100 µM (inactive) | 
13 | CC[C@@]1(C[C@H]2C[C@@]3(C(=O)OC)c4[nH]c5ccccc5c4CCN3C2=O)COC2(CCCCC2)O1 | 61.9 µM (inactive) | 46.8 µM (inactive) | 20 µM (inactive) | 37.8 µM (inactive) | 33.4 µM (inactive) | 15 µM (inactive) | 69.5 µM (inactive) | 55.8 µM (inactive) |  | 43.9 µM (inactive) | 27.4 µM (inactive) | 18.9 µM (inactive) | 12.5 µM (inactive) | 30.3 µM (inactive) |  | 32.2 µM (inactive) |  | 35.1 µM (inactive) | 
14 | Cc1nc2ccc(/N=N/N(C)C)cc2[nH]1 | > 100 µM (inactive) | > 100 µM (inactive) | > 100 µM (inactive) | > 100 µM (inactive) | > 100 µM (inactive) | > 100 µM (inactive) | > 100 µM (inactive) | > 100 µM (inactive) | > 100 µM (inactive) | > 100 µM (inactive) | > 100 µM (inactive) |  | > 100 µM (inactive) | > 100 µM (inactive) | 98.9 µM (inactive) | > 100 µM (inactive) | > 100 µM (inactive) |  | 
15 | CCCCC1Cc2cc(OC)ccc2-c2nc3cc(OC)ccc3n21.CCCCC1Cc2cc(OC)ccc2-c2nc3ccc(OC)cc3n21 (stereo not drawn) | 12.6 µM (inactive) |  | 14.4 µM (inactive) | 15 µM (inactive) |  | 11.2 µM (inactive) | 13.5 µM (inactive) | 16.9 µM (inactive) |  | 11.1 µM (inactive) | 10.7 µM (inactive) | 13.8 µM (inactive) | 9.73 µM (inactive) | 17.6 µM (inactive) | 13.8 µM (inactive) |  | 14 µM (inactive) | 16.1 µM (inactive) | 2.06 µM (inactive)
16 | CC(C)(C)OC(=O)N/N=C(/N)c1ccccc1 | > 100 µM (inactive) | > 100 µM (inactive) | > 100 µM (inactive) | > 100 µM (inactive) | > 100 µM (inactive) | > 100 µM (inactive) | > 100 µM (inactive) | > 100 µM (inactive) |  | > 100 µM (inactive) | > 100 µM (inactive) | 6.55 µM (inactive) | > 100 µM (inactive) | > 100 µM (inactive) | > 100 µM (inactive) | > 100 µM (inactive) | > 100 µM (inactive) | > 100 µM (inactive) | 
17 | COc1cc2cc(C(=O)N3CC(CCl)c4ccc([N+](=O)[O-])cc43)[nH]c2c(OC)c1OC (stereo not drawn) | 30.8 µM (inactive) | > 100 µM (inactive) | > 100 µM (inactive) | > 100 µM (inactive) | > 100 µM (inactive) | > 100 µM (inactive) |  | > 100 µM (inactive) | > 100 µM (inactive) | > 100 µM (inactive) | 17.4 µM (inactive) | > 100 µM (inactive) | > 100 µM (inactive) | > 100 µM (inactive) | > 100 µM (inactive) | > 100 µM (inactive) |  | > 100 µM (inactive) | > 100 µM (inactive)
